Common to all, as to type: physicochemical
Data set [1] is described as follows: decomposition of rocuronium bromide in water at room temperature. Particulars: aqueous solution, in 24 hours. The source says: While freeze drying of the aqueous solution did reduce the isobutyl acetate level to an acceptable level of 0.26%, the impurity levels rose to 0.33%. […] This inherent instability in aqueous solution may explain thc observed rise in the impurities level in our hands.

A short description of data set [2]: hygroscopicity test at relative humidity of about 45%. The settings on record: within 24 hours, sample containing 3.1% acetic acid (stabilized solid of the invention). The procedure: In another aspect, the present invention relates to an improved process for preparing a stable solid comprising substantially pure rocuronium bromide, which is substantially non-hygroscopic, because when subjected to hygroscopisity test at relative humidity of about 45%, a sample containing 3.1% acetic acid absorbed only about 2% water within 24 hours.

Data set [3] in a line: nature of product freeze dried from unbuffered degassed water (Example 5). The settings on record: Example 5: dissolved in degassed water and freeze dried, no buffer. On the procedure: Rocuronium bromide (2 grams) prepared according to example 1 and dried in a manner similar to entries 1 and 2 in table 2 (see example 4), was dissolved in degassed water (30 ml) and freeze dried.

As for `C=CC[N+]1(C2CC3C4CC[C@H]5C[C@H](O)C(N6CCOCC6)C[C@]5(C)C4CC[C@]3(C)[C@H]2OC(C)=O)CCCC1.[Br-]` (stereo partly drawn) [rocuronium bromide, 1-[(2β,3α,5α,16β,17β)-17-acetoxy-3-hydroxy-2-(4-morpholinyl)-androstan-16-yl-]-1-(2-propenyl)pyrrolidinium bromide], in data set [1], the “decomposition rate in water” value was 0.25-0.5%. Further, the water absorbed result in data set [2] is “about 2%”. Moreover, the hygroscopicity of product result in data set [3] was “highly hygroscopic”.

Source of the values: patent US20060058275A1, “Processes for preparing stabilized, highly pure rocuronium bromide” (priority 2004, published 2006).
